{
  "source": "ChEMBL document CHEMBL1201862",
  "about": "“PubChem BioAssay data set” (2004)",
  "key": {"HEK293 [1]": {"test_system": "HEK293", "assay": "cells", "conditions": "Homo sapiens"}, "[2]": {"assay": "HEK-293T cell viability reduction – luminescence, B-cell screen hits, cytotoxicity control for BCR NF-kB inhibitor project, dose response (AID 489021);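 note: HEK-293T cells carrying an NF-kB luciferase reporter; cells exposed to compound for about 14 hours before viability readout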", "assay_type": "functional, cell-based"}, "HEK293 [3]": {"test_system": "HEK293", "assay": "inhibition of NOD1-driven NF-kB reporter – cell-based, luminescence, uHTS, primary screen (AID 1578)", "assay_type": "functional", "conditions": "Homo sapiens"}, "[4]": {"target": "Nucleotide-binding oligomerization domain-containing protein 2 (Homo sapiens, UniProt Q9HC29)", "sequence (Q9HC29 whole entry, the tested form may be a part)": "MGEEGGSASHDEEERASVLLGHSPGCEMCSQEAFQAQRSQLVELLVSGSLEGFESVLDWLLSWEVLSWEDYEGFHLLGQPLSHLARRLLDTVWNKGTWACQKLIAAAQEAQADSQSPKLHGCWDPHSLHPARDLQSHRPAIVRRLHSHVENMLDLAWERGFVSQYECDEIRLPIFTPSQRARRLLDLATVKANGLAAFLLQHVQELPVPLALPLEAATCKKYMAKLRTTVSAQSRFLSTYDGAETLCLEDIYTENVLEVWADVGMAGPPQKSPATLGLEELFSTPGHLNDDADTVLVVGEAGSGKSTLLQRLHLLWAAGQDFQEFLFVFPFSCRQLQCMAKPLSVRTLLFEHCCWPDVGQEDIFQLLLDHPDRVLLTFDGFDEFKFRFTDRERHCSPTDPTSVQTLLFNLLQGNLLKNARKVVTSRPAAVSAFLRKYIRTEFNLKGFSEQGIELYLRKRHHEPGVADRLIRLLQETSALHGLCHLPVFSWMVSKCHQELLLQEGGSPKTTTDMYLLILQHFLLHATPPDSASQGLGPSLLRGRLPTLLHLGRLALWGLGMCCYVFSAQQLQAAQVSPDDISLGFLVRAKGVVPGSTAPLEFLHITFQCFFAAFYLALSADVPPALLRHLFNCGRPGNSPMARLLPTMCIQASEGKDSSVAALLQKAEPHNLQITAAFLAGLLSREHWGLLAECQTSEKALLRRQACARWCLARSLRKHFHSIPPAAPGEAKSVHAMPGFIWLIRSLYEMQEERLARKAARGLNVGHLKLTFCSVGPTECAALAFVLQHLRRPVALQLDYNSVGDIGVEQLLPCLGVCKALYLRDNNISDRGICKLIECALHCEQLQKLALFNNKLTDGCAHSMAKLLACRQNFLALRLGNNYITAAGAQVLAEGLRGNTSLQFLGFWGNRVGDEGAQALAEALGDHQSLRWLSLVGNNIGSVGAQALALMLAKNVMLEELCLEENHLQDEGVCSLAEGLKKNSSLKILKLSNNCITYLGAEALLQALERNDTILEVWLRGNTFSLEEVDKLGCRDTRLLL", "assay": "PubChem AID 2334", "assay_type": "functional"}, "HEK293 [5]": {"test_system": "HEK293", "assay": "cells", "assay_type": "functional, cell-based", "conditions": "Homo sapiens"}, "HEK293 [6]": {"test_system": "HEK293", "assay": "NOD2 signaling inhibitors in MDP-stimulated cells, cell-based, uHTS, luminescence (AID 2001)", "assay_type": "functional", "conditions": "Homo sapiens"}, "Tumor necrosis factor": {"target": "Tumor necrosis factor (Homo sapiens, UniProt P01375)", "sequence (P01375 whole entry)": "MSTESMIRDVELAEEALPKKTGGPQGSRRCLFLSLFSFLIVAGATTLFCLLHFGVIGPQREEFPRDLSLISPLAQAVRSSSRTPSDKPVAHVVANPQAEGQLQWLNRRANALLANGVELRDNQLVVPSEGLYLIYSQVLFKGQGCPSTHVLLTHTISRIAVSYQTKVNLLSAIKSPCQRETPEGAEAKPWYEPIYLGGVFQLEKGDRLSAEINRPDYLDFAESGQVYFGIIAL", "assay": "analog potency on TNFa NF-kB signaling – cell-based, revised, SAR follow-up (AID 2337)", "assay_type": "functional"}, "HEK293 [7]": {"test_system": "HEK293", "assay": "cells", "assay_type": "functional, cell-based", "conditions": "Homo sapiens", "remark": "listed apart in the source"}, "Jurkat": {"test_system": "Jurkat", "assay": "SAR Analysis of small molecule inhibitors of […] specific antigen receptor-induced NF-kB activation in a Jurkat cell line using a luminescence assay - Set 3. [Related pubchem assays (depositor defined):AID435022, AID435025, AID465]", "assay_type": "functional, cell-based", "conditions": "Homo sapiens"}, "[8]": {"target": "Nucleotide-binding oligomerization domain-containing protein 1 (Homo sapiens, UniProt Q9Y239)", "sequence (Q9Y239 whole entry, the tested form may be a part)": "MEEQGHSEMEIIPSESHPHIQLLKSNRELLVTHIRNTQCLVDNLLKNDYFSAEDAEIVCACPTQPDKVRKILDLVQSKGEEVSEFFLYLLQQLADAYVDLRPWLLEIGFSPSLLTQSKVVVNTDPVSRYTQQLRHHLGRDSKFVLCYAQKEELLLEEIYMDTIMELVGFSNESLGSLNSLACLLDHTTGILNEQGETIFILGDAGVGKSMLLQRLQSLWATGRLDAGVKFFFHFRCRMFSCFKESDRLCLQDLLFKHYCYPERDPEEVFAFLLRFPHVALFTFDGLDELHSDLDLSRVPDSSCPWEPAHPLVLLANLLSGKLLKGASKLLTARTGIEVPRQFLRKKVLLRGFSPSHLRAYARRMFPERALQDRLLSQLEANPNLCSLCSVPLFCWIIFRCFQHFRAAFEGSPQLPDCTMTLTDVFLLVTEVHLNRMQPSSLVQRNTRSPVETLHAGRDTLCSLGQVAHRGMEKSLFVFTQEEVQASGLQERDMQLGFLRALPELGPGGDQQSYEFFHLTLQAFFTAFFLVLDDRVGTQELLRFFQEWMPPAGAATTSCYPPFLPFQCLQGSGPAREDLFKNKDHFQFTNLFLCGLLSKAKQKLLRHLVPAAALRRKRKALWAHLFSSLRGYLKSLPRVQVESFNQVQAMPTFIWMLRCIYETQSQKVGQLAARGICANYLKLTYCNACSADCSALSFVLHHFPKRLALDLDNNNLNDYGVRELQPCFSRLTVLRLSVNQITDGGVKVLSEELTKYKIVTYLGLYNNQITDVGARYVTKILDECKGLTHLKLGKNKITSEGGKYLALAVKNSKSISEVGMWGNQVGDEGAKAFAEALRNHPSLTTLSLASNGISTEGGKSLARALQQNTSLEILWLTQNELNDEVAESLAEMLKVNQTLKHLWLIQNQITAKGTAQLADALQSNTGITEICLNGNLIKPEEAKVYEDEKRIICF", "assay": "blockers of NOD1 pathway activity – revised, SAR follow-up (AID 2333)", "assay_type": "functional"}, "[9]": {"target": "T1, Microphthalmia-associated transcription factor (Homo sapiens, UniProt O75030)", "T1 sequence (O75030 whole entry)": "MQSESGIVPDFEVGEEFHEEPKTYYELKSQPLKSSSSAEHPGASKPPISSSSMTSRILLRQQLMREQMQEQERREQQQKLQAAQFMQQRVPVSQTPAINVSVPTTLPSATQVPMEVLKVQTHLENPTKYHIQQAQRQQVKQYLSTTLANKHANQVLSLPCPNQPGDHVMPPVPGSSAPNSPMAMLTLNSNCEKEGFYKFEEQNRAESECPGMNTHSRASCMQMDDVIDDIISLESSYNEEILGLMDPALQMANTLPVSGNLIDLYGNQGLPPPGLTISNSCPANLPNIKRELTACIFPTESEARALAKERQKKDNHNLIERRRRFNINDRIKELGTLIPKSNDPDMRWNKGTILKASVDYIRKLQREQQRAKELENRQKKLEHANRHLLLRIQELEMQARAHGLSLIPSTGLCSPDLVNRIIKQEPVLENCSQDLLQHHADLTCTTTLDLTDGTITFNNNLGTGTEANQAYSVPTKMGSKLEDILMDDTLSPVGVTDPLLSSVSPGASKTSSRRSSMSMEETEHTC", "assay": "reducers of TRPM1 reporter luminescence, concentration series – cell-based, SK-MEL-5, cherry-picked, set 3, MITF inhibitor project, dose response (AID 493073);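 note: SK-MEL-5 melanoma cells with luciferase driven by the MITF target TRPM1 promoter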", "assay_type": "functional"}, "HEK293 [10]": {"test_system": "HEK293", "assay": "HEK293T cell viability loss, resazurin readout – resazurin fluorescence, cytotoxicity control for NF-kB activator project, SAR follow-up (AID 493251)", "assay_type": "functional, cell-based", "conditions": "Homo sapiens"}, "HEK293 [11]": {"test_system": "HEK293", "assay": "SAR Analysis of small molecule inhibitors of B-cell specific antigen receptor-induced NF-kB activation in a HEK-293T cell line using a luminescence assay - Set 2. [Related pubchem assays (depositor defined):AID435022, AID435025, AID489021]", "assay_type": "functional, cell-based", "conditions": "Homo sapiens"}, "[12]": {"target": "G-protein coupled receptor 35 (Homo sapiens, UniProt Q9HC97)", "sequence (Q9HC97 whole entry)": "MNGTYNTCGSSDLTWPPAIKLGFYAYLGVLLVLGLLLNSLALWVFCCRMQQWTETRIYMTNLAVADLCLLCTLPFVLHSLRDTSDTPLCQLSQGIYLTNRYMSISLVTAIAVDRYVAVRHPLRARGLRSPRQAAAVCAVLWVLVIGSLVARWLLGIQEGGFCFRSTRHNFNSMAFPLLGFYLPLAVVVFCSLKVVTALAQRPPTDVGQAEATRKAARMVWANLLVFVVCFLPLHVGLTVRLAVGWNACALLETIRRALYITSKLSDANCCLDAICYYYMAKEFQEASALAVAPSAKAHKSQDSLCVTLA", "assay": "SAR Analysis for the identification of Selective Antagonists of ERK1/2 Activity in GPR35-Overexpressing U2OS Cells. [Related pubchem assays: 2079, 2058 ]", "assay_type": "functional, cell-based"}, "[13]": {"target": "G-protein coupled receptor 55 (Homo sapiens, UniProt Q9Y2T6)", "sequence (Q9Y2T6 whole entry)": "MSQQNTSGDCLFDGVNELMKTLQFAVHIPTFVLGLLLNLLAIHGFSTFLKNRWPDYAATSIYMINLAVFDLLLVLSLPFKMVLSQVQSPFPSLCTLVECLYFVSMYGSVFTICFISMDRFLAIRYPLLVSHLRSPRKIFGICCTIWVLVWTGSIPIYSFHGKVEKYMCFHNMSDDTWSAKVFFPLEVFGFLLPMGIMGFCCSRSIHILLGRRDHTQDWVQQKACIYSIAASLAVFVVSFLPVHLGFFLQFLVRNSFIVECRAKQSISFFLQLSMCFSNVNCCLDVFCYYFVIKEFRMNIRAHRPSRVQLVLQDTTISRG", "assay": "blockers of GPR55 signalling, imaged – imaging, image-based, counter-screen for GPR35 antagonist project, SAR follow-up (AID 2397)", "assay_type": "functional"}, "[14]": {"target": "Beta-adrenergic receptor kinase 1 (Homo sapiens, UniProt P25098)", "sequence (P25098 whole entry)": "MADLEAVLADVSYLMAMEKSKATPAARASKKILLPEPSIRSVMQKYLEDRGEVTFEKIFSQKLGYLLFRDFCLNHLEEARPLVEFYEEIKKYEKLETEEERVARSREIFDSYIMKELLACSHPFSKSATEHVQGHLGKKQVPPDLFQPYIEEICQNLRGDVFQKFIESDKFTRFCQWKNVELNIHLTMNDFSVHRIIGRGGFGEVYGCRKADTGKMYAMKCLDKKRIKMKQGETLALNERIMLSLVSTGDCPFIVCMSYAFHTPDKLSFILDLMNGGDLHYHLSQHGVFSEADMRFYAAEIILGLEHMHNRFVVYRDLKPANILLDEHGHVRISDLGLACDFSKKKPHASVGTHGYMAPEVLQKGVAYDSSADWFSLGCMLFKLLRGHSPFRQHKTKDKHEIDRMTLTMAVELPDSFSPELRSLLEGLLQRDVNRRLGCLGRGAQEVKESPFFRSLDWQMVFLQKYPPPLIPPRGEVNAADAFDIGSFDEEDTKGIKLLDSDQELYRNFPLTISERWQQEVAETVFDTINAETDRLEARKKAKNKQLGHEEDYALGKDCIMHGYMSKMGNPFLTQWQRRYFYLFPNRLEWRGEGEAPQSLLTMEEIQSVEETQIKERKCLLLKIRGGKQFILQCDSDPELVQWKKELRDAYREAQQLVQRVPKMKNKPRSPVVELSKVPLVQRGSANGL", "assay": "blockers of aptamer binding to GRK2 – biochemical, flow cytometry beads, FAM-aptamer, powder set 1, dose response (AID 588720)"}, "[15]": {"target": "Intestinal-type alkaline phosphatase (Homo sapiens, UniProt P09923)", "sequence (P09923 whole entry)": "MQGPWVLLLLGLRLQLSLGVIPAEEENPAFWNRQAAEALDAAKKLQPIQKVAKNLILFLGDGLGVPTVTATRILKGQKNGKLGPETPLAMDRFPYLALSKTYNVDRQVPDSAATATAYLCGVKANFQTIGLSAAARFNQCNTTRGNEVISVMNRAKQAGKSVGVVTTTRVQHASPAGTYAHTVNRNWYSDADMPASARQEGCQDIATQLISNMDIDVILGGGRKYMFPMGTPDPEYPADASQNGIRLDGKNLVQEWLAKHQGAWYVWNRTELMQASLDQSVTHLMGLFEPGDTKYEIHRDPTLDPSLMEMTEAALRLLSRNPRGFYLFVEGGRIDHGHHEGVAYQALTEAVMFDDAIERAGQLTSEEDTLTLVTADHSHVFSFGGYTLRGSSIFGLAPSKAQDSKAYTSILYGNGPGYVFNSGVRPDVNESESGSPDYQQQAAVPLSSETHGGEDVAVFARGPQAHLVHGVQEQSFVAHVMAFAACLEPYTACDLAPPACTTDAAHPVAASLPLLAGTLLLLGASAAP", "assay": "inhibition of human intestinal alkaline phosphatase – biochemical, dose response (AID 488876)", "assay_type": "functional"}, "[16]": {"target": "Intestinal-type alkaline phosphatase (Mus musculus, UniProt P24822)", "sequence (P24822 whole entry)": "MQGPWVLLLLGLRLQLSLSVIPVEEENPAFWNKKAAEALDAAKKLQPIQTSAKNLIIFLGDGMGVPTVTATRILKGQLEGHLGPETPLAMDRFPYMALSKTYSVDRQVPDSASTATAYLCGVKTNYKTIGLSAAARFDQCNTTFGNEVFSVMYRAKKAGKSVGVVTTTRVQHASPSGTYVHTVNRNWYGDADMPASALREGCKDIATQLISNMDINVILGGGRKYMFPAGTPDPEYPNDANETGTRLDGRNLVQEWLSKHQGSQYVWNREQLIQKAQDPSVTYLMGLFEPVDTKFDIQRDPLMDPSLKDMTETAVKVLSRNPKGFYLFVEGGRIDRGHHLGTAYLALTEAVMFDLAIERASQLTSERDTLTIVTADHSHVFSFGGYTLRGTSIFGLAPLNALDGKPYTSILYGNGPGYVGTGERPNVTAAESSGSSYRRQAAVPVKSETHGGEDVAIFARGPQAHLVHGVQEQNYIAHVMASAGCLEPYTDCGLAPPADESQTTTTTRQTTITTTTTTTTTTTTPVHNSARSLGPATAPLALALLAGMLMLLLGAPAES", "assay": "PubChem AID 488785", "assay_type": "functional"}, "[17]": {"target": "T2, Alkaline phosphatase, tissue-nonspecific isozyme (Homo sapiens, UniProt P05186)", "T2 sequence (P05186 whole entry)": "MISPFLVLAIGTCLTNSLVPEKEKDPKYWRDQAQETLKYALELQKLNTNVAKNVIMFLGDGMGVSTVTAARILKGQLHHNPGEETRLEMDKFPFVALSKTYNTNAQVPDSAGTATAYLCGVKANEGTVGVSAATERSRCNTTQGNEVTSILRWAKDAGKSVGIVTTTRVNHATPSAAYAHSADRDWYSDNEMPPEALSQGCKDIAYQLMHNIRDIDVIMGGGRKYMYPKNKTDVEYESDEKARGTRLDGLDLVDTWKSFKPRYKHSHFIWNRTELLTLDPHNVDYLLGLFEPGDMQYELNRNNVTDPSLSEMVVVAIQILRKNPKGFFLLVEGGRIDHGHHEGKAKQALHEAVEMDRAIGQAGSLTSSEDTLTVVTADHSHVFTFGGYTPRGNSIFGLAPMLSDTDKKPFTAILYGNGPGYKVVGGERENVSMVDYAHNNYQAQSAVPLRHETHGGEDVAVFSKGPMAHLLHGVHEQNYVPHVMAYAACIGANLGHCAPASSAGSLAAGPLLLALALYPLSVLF", "assay": "TNAP enzyme inhibition by screening hits, dose response, selectivity assay for mouse IAP inhibitor project, biochemical, human TNAP, uHTS hits (AID 488906)", "assay_type": "functional"}, "[18]": {"target": "T3, Long-chain-fatty-acid--AMP ligase FadD28 (Mycobacterium tuberculosis, UniProt P9WQ59)", "T3 sequence (P9WQ59 whole entry)": "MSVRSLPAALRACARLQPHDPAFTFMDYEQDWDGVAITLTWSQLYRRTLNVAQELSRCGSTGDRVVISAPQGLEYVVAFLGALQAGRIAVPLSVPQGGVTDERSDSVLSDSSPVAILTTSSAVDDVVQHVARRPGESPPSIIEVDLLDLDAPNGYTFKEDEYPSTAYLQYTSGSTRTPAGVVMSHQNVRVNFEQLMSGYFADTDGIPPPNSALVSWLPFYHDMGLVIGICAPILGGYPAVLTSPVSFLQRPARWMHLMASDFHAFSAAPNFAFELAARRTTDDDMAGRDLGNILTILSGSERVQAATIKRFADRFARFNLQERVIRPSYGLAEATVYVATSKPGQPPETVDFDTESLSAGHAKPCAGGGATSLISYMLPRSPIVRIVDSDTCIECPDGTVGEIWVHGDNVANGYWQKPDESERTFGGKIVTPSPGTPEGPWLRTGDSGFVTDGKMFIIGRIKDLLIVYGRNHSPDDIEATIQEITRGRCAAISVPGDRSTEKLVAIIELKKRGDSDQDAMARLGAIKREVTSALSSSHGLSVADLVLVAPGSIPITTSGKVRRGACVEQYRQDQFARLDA", "assay": "Fluorescence polarization aasay to screen for inhibitors that compete for the binding of FadD28 to a bisubstrate Measured in Biochemical System Using Plate Reader - 2147-01_Inhibitor_Dose_CherryPick_Activity.", "assay_type": "functional, Mycobacterium tuberculosis H37Rv"}},
  "note": "Active and inactive are the calls of the source.",
  "data": [
    {"smiles": "CC(C)(C)c1ccc(-c2noc(CCC(=O)NCc3ccco3)n2)cc1", "values": [
      {"measurement": "IC50", "setting": "HEK293 [1]", "result": "> 20 µM (inactive)"},
      {"measurement": "IC50", "setting": "[2]", "result": "> 80 µM (inactive)"},
      {"measurement": "EC50", "setting": "HEK293 [3]", "result": "8.42 µM (active)"},
      {"measurement": "IC50", "setting": "[4]", "result": "2.16 µM (active)"},
      {"measurement": "IC50", "setting": "HEK293 [5]", "result": "> 20 µM (inactive)"},
      {"measurement": "IC50", "setting": "HEK293 [6]", "result": "> 20 µM (inactive)"},
      {"measurement": "IC50", "setting": "Tumor necrosis factor", "result": "6.76 µM (active)"},
      {"measurement": "IC50", "setting": "HEK293 [7]", "result": "> 20 µM (inactive)"},
      {"measurement": "IC50", "setting": "Jurkat", "result": "> 80 µM (inactive)"},
      {"measurement": "IC50", "setting": "[8]", "result": "3.68 µM (active)"},
      {"measurement": "AC50", "setting": "[9]", "result": "0.122 µM (active)"},
      {"measurement": "IC50", "setting": "HEK293 [10]", "result": "49.2 µM (inactive)"},
      {"measurement": "IC50", "setting": "HEK293 [11]", "result": "2.39 µM (active)"}
    ]},
    {"smiles": "Cc1c(C(=O)Nc2ccc3c(c2)OCCO3)sc2ncnc(N3CCC(C)CC3)c12", "values": [
      {"measurement": "IC50", "setting": "[12]", "result": "20.6 µM (not active)"},
      {"measurement": "IC50", "setting": "[13]", "result": "21.4 µM (inactive)"}
    ]},
    {"smiles": "Cc1cccc(N2CCN(C(=O)CCS(=O)(=O)c3ccc(Br)cc3)CC2C)c1", "note": "(stereo not given)", "values": [
      {"measurement": "EC50", "setting": "[14]", "result": "2 µM (active)"}
    ]},
    {"smiles": "O=C(NN1C(=O)/C(=C/c2ccc(O)c(O)c2)SC1=S)c1ccccc1", "values": [
      {"measurement": "IC50", "setting": "[15]", "result": "> 100 µM (inactive)"},
      {"measurement": "IC50", "setting": "[16]", "result": "1.28 µM (active)"},
      {"measurement": "IC50", "setting": "[17]", "result": "20 µM (active)"},
      {"measurement": "AC50", "setting": "[18]", "result": "1.41 µM (active)"}
    ]}
  ]
}
